The target in the assay is T1, Tyrosine-protein phosphatase non-receptor type 11 (Homo sapiens, UniProt Q06124).
T1 sequence (Q06124 whole entry): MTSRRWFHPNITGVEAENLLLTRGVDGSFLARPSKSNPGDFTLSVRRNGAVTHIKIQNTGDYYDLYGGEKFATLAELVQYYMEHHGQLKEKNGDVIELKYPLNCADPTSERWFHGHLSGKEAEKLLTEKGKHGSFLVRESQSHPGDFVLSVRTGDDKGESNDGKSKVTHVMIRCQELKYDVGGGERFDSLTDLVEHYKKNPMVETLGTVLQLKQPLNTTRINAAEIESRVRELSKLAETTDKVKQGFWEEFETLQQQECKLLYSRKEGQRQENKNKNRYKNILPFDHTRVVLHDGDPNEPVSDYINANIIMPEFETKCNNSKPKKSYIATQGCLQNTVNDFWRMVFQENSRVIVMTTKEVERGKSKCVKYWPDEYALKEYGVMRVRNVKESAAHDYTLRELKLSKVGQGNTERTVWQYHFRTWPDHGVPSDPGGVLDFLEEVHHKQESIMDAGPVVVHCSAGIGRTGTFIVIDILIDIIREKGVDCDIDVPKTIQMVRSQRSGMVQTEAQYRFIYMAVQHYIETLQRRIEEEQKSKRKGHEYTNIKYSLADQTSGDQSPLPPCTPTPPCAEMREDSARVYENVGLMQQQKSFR
The assay can be described thus: SHP2 phosphatase inhibition, dose response, selectivity assay for STEP inhibitor project, biochemical (AID 602367).

The values below come from BindingDB's records for doi:10.7270/Q2T43RPN (Burnham Center For Chemical Genomics, 2012).

As a reminder, the IC50 is the point on the concentration scale where inhibition reaches its midpoint. A lower IC50 goes with greater potency in that assay. The compound `S=C1N=C(C23CC4CC(CC(C4)C2)C3)CC(c2ccc3c(c2)OCO3)N1` (stereo not given) registered an IC50 of 15 µM. This lies in the double-digit micromolar range.

For the compound `CCOc1cc(CN=Nc2nc(O)c(CC(=O)O)s2)ccc1OCc1ccc(Cl)cc1Cl` [2-[2-[(N''E)-N''-[4-(2,4-dichlorobenzyl)oxy-3-ethoxy-benzylidene]hydrazino]-4-keto-2-thiazolin-5-yl]acetic acid], the IC50 worked out at 2.2 µM.

On to `C=c1c(O)c(O)c(=C2C(=O)C(=O)C(C)C(=O)C2=O)c(O)c1O` (stereo not given) [(3E)-5-hydroxy-6-methyl-3-(2,3,5-trihydroxy-4-methyl-6-oxo-1-cyclohexa-2,4-dienylidene)cyclohex-5-ene-1,2,4-trione], for which the IC50 is below 0.16 µM.

Take `O=C1C(=O)N(CCCO)C(c2ccc(Br)cc2)C1C(=O)c1ccc(Br)cc1` (stereo not given) [(4E)-5-(4-bromophenyl)-4-[(4-bromophenyl)-oxidanyl-methylidene]-1-(3-oxidanylpropyl)pyrrolidine-2,3-dione]: half-maximal inhibition (IC50) required 58.9 µM.

For the compound `S=C1N=C2C(=C3SCCS3)CCCC2C(c2ccccc2)N1` (stereo not given) [MLS000516376], the 50% inhibitory concentration (IC50) was 5.27 µM.

Compound `CCN(CC)P(=O)(NC(=O)C(Cl)(Cl)Cl)N(CC)CC` [MLS000564159] showed an IC50 of 3.91 µM.

The compound `CSc1ccc(CN=Nc2ccc(S(=O)(=O)Nc3ccccc3C(=O)O)cc2[N+](=O)[O-])cc1` [MLS002245633] displayed an IC50 of 1.11 µM.

In the case of `O=C(N/N=C/C1C=CC=CC1=O)c1cccc([N+](=O)[O-])c1` (stereo not given) [MLS002667988], the half-maximal inhibitory concentration (IC50) turned out to be 2.39 µM. Compared with the last compound, the IC50 is about 2.2-fold higher.

Compound `COc1ccc(OC)c(-n2c(O)c3o[nH]c(-c4ccccc4Cl)c-3c2=O)c1` [SMR000046218] came in with a half-maximal inhibitory concentration (IC50) of 0.469 µM.

`COc1ccc(CN=Nc2nc(O)c(CC(=O)O)s2)cc1OCc1ccc(Cl)cc1Cl` [[2-({3-[(2,4-dichlorobenzyl)oxy]-4-methoxybenzylidene}hydrazono)-4-oxo-1,3-thiazolidin-5-yl]acetic acid] came in with a half-maximal inhibitory concentration (IC50) of 4.42 µM.
